Test [1] has as its target RXR. The test can be described thus: RXR binding.
Test [2] concerns RXR. The test can be described thus: RXR transactivation test. Format: cell-based. As to conditions: for AC50: read-out: RXR transactivation AC 50; for RXR transactivation test (%): tested compound at 10 μM, relative to control 6-[1-(3,5,5,8,8-pentamethyl-5,6,7,8-tetrahydronaphthalen-2-yl)cyclopropyl]nicotinic acid at 10^-8 M. The procedure: We further tested compounds according to the claimed invention to ascertain their activity in assays that identify molecules as RXR-agonists. […] These references are incorporated by reference in their entirety herein.
The percentage values in the Table correspond to the percentage of activities of the tested compound at a concentration of 10 μM. This is relative to a control compound, 6-[1-(3,5,5,8,8-pentamethyl-5,6,7,8-tetrahydronaphthalen-2-yl)cyclopropyl]nicotinic acid, at a concentration of 10^-8 M.

The structures appear in SMILES notation.

In the case of `CCc1cc2c(cc1Oc1ccc(C(=O)O)cc1)C(C)(C)CCC2(C)C` [Example 9, 4-(3-ethyl-5,5,8,8-tetramethyl-5,6,7,8-tetrahydro-2-naphthyloxy)benzoic acid], in test [1], the affinity, expressed as Ki, was 2820 nM. Besides, in test [2], the AC50 was determined as 279 nM and the “RXR transactivation test (%)” value is reported as 108%.

Regarding `CCc1cc2c(cc1Sc1ccc(C(=O)O)cc1)C(C)(C)CCC2(C)C` [Example 20, 4-(3-ethyl-5,6,7,8-tetrahydro-5,5,8,8-tetramethyl-2-naphthylthio)benzoic acid], the Ki (in general, a dissociation constant, usually derived from enzyme kinetics or from competition with a known ligand) in test [1] was 3950 nM. For the same compound, the “RXR transactivation test (%)” value in test [2] stood at 41%.

With `Cc1cc2c(cc1Oc1ccc(C(=O)O)cc1)C(C)(C)CCC2(C)C` [Example 7, 4-(3,5,5,8,8-pentamethyl-5,6,7,8-tetrahydro-2-naphthyloxy)benzoic acid], in test [2], the AC50 was found to be 355 nM and the “RXR transactivation test (%)” value amounted to 48%.

In the case of `Cc1cc2c(cc1Sc1ccc(C(=O)O)c(Cl)c1)C(C)(C)CCC2(C)C` [Example 19, 2-chloro-4-(3,5,5,8,8-pentamethyl-5,6,7,8-tetrahydro-2-naphthylthio)benzoic acid], in test [2], the AC50 came out at 656 nM and the “RXR transactivation test (%)” value is 58%.

For the compound `CC1(C)CCC(C)(C)c2cc(Oc3ccc(C(=O)O)cc3)ccc21` [Example 1, 4-(5,6,7,8-tetrahydro-5,5,8,8-tetramethyl-2-naphthyloxy)benzoic acid], the “RXR transactivation test (%)” value in test [2] came to 33%.

In test [1], `CC1(C)CCC(C)(C)c2cc(Oc3ccc(C(=O)O)cc3)c(Br)cc21` [Example 13, 4-(3-bromo-5,6,7,8-tetrahydro-5,5,8,8-tetramethyl-2-naphthyloxy)benzoic acid] gave a Ki of 1130 nM. In test [2], the “RXR transactivation test (%)” value stood at 57%.

In the case of `Cc1cc2c(cc1Sc1ccc(C(=O)O)cn1)C(C)(C)CCC2(C)C` [Example 17, 6-(3,5,5,8,8-pentamethyl-5,6,7,8-tetrahydro-2-naphthylthio)nicotinic acid], the Ki in test [1] stood at 538 nM. In test [2], the AC50 stood at 48 nM and the “RXR transactivation test (%)” value is listed as 102%.

As to `Cc1cc2c(cc1Sc1ccc(C(=O)Nc3ccc(O)cc3)cc1)C(C)(C)CCC2(C)C` [Example 26, N-4-hydroxyphenyl-4-(3,5,5,8,8-pentamethyl-5,6,7,8-tetrahydro-2-naphthylthio)benzamide], the “RXR transactivation test (%)” value in test [2] was determined as 14%.

In test [1], `CC(C)c1cc2c(cc1Oc1ccc(C(=O)O)cc1)C(C)(C)CCC2(C)C` [Example 10, 4-(3-isopropyl-5,5,8,8-tetramethyl-5,6,7,8-tetrahydro-2-naphthyloxy)benzoic acid] came in with a Ki of 2480 nM. For the same compound, in test [2], the AC50 is 495 nM and the “RXR transactivation test (%)” value was found to be 81%.

As for `CCNC(=O)c1ccc(Sc2cc3c(cc2C)C(C)(C)CCC3(C)C)cc1` [Example 25, N-ethyl-4-(3,5,5,8,8-pentamethyl-5,6,7,8-tetrahydro-2-naphthylthio)benzamide], the “RXR transactivation test (%)” value in test [2] was 15%.

For `Cc1cc2c(cc1Sc1ccc(C=O)cc1)C(C)(C)CCC2(C)C` [Example 24, 4-(3,5,5,8,8-pentamethyl-5,6,7,8-tetrahydro-2-naphthylthio)benzaldehyde], the “RXR transactivation test (%)” value in test [2] turned out to be 17%.

`CC1(C)CCC(C)(C)c2cc(Nc3ccc(C(=O)O)cc3)ccc21` [Example 5, 4-(5,6,7,8-tetrahydro-5,5,8,8-tetramethyl-2-naphthylamino)benzoic acid]: the “RXR transactivation test (%)” value in test [2] amounted to 21%.

Take `CC1(C)CCC(C)(C)c2cc([S+]([O-])c3ccc(C(=O)O)cc3)ccc21` (centres unmarked) [Example 3, 4-(5,6,7,8-tetrahydro-5,5,8,8-tetramethyl-2-naphthylsulfinyl)benzoic acid]: the “RXR transactivation test (%)” value in test [2] came out at 25%.

As for `CCc1cc2c(cc1Oc1ccc(C(=O)O)cc1C)C(C)(C)CCC2(C)C` [Example 16, 3-methyl-4-(3-ethyl-5,6,7,8-tetrahydro-5,5,8,8-tetramethyl-2-naphthyloxy)benzoic acid], the “RXR transactivation test (%)” value in test [2] stood at 38%.

On to `CC1(C)CCC(C)(C)c2cc(Sc3ccc(C(=O)O)s3)ccc21` [Example 6, 5-(5,6,7,8-tetrahydro-5,5,8,8-tetramethyl-2-naphthylthio)-2-thiophenecarboxylic acid], for which, in test [2], the “RXR transactivation test (%)” value came to 39%.

As for `Cc1cc2c(cc1Sc1ccc(C(=O)O)cc1)C(C)(C)CCC2(C)C` [Example 8, 4-(3,5,5,8,8-pentamethyl-5,6,7,8-tetrahydro-2-naphthylthio)benzoic acid], in test [1], affinity was put at a Ki of 3740 nM. Moreover, in test [2], the AC50 was found to be 300 nM and the “RXR transactivation test (%)” value is listed as 118%.

`Cc1cc2c(cc1Sc1ccc(CO)cc1)C(C)(C)CCC2(C)C` [Example 23, 4-(3,5,5,8,8-pentamethyl-5,6,7,8-tetrahydro-2-naphthylthio)benzenemethanol]: the “RXR transactivation test (%)” value in test [2] was found to be 3%.

(Values after patent US6162815A, “RXR-agonist polycyclic aromatic compounds, pharmaceutical/cosmetic compositions comprising said compound and uses thereof” (Centre International de Recherches Dermatologiques Galderma, priority 1994, dated 2000).)
